Like-named read-outs stand apart in the source and are kept apart here.
Tests used:
FAAH [1] = biological target: T1, FAAH (Rattus norvegicus, UniProt P97612); test: In vitro FAAH activity in rat brain homogenates/membranes; assay type: biochemical; settings: for FAAH activity, percent of control, 10 nM / FAAH activity, percent of control, 100 nM: rat brain homogenates, 15 min pre-incubation, Table 2
T1 sequence (P97612 1-579): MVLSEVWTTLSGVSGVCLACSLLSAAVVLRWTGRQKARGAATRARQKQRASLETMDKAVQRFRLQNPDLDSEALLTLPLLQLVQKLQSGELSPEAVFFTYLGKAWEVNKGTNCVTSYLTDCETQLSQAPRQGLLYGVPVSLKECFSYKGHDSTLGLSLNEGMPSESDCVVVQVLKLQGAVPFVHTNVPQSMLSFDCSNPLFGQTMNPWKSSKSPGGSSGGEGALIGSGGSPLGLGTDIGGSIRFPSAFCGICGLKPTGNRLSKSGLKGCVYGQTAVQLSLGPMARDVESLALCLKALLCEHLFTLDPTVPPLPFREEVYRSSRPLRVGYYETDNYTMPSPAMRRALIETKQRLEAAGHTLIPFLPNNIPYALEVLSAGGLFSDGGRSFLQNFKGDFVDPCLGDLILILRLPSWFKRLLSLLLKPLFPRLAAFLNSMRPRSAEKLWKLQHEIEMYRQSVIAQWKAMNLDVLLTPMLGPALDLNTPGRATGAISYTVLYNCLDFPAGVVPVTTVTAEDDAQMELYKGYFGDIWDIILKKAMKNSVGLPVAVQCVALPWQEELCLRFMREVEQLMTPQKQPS

FAAH [2] = biological target: T2, FAAH (Mus musculus, UniProt O08914); test: In vivo FAAH inhibition, liver, after oral administration to mice
T2 sequence (O08914 1-579): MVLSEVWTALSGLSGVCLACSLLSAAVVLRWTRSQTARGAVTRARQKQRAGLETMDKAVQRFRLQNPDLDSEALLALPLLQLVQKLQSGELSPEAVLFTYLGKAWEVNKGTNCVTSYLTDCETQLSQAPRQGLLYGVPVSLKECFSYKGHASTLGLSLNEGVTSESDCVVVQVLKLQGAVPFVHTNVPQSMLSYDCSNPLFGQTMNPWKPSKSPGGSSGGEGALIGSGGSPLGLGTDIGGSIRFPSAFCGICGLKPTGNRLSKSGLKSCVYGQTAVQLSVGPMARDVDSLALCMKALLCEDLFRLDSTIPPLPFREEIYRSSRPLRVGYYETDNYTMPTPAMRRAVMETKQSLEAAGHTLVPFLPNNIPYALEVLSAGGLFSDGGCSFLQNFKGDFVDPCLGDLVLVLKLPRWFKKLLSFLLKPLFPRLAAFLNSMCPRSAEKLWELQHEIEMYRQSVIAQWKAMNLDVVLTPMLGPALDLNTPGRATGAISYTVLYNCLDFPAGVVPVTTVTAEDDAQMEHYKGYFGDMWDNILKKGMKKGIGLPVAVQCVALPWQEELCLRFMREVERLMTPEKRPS

carboxylesterases (CEs) = test: CE activity in rat liver microsomes; assay type: biochemical; settings: for CEs activity, percent of control: C inhib=10 μM in rat liver microsomes, Table 2; for CEs (10 μM), percent of control: 10 μM in rat liver microsomes, Table 4
MAGL = biological target: T3, MAGL (Rattus norvegicus, UniProt Q8R431); test: MAGL activity in rat cerebellum cytosol; assay type: biochemical; settings: for MAGL activity, percent of control / MAGL (100 μM), percent of control: C inhib=100 μM in rat cerebellum cytosol; for MAGL activity, percent of control: Table 2; for MAGL (100 μM), percent of control: Table 4
T3 sequence (Q8R431 1-303): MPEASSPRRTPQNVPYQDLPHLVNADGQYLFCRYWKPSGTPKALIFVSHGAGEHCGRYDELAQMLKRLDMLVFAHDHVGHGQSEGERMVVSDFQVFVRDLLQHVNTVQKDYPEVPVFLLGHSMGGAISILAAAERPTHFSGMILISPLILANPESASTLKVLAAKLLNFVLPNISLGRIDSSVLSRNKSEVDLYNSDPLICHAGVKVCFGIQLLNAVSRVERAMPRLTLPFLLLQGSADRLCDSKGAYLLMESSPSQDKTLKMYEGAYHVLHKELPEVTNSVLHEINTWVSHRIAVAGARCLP

FAAH [3] = biological target: T2, FAAH; test: In vivo FAAH inhibition, brain, after oral administration to mice
[4] = CYP450 metabolic stability, mouse liver microsomes; assay type: in vitro ADME; settings: 1 h incubation; for CYP450 metabolic stability, Mouse, percent of remaining: 5 μM in liver microsomes; for CYPs (50 μM), percentage remaining: C inhib=50 μM in mouse liver microsomes
[5] = CYP450 metabolic stability, rat liver microsomes; assay type: in vitro ADME; settings: 5 μM in liver microsomes, 1 h incubation
[6] = CYP450 metabolic stability, dog liver microsomes; assay type: in vitro ADME; settings: 5 μM in liver microsomes, 1 h incubation
[7] = CYP450 metabolic stability, primate liver microsomes; assay type: in vitro ADME; settings: 5 μM in liver microsomes, 1 h incubation
[8] = CYP450 metabolic stability, human liver microsomes; assay type: in vitro ADME; settings: 5 μM in liver microsomes, 1 h incubation
[9] = 30 mg kg^−1 p.o. in mice, 1 h after administration, Table 2
[10] = 0.1 mg kg^−1 p.o. in mice, 8 h after administration, Table 4
[11] = 0.1 mg kg^−1, mouse, p.o., text b31
[12] = 0.1 mg kg^−1 p.o., mice, post-dose

SMILES	FAAH activity, percent of control, 10 nM (FAAH [1])	FAAH activity, percent of control, 100 nM (FAAH [1])	Liver FAAH activity, percent of control (FAAH [2]; [9])	CEs activity, percent of control (carboxylesterases (CEs))	MAGL activity, percent of control (MAGL)	Brain FAAH activity, percent of control (FAAH [3]; [9])	Liver FAAH activity, percent of control (FAAH [2]; [10])	CEs (10 μM), percent of control (carboxylesterases (CEs))	MAGL (100 μM), percent of control (MAGL)	CYP450 metabolic stability, Mouse, percent of remaining [4]	CYPs (50 μM), percentage remaining [4] [percentage remaining]	CYP450 metabolic stability, Rat, percent of remaining [5]	CYP450 metabolic stability, Dog, percent of remaining [6]	CYP450 metabolic stability, Primate, percent of remaining [7]	CYP450 metabolic stability, Human, percent of remaining [8]	Brain FAAH activity, percent of control (FAAH [3]; [10])	further results
CN(C(=O)n1nnc2ccccc21)C1CCCCC1 [Compound 10 k]	1±0% of control	1±2% of control	1±0% of control	30±1% of control	73±3% of control	0±0% of control											
CC1(C)COCN1C(=O)n1nnc2ccccc21 [Compound 11 a]	78±25% of control	2±1% of control	2±1% of control	81±6% of control	90±5% of control	0±0% of control	10±4% of control	81±6% of control	90±5% of control	5±0% of remaining	25±2	26±0% of remaining	1±0% of remaining	0±0% of remaining	52±9% of remaining	24±7% of control	IC50 (FAAH [1]): 19 nM; ED50 (FAAH [2]; mouse, po, 1 h, read-out: ED50 liver (peripheral) FAAH): 7 µg/kg; ED50 brain (cerebral) FAAH (FAAH [3]; mouse, p.o., 0.001–3.0 mg kg^−1, 1 h post-dose): 61 µg/kg
CC1(C)COCN1C(=O)n1nnc2ccc(Br)cc21 [Compound 11 b, (6‐Bromo‐1H‐benzo[d][1,2,3]triazol‐1‐yl)(4,4‐dimethyloxazolidin‐3‐yl)methanone]							16±6% of control	73±9% of control	67±12% of control		8±2					77±29% of control	
CC1(C)COCN1C(=O)n1nnc2ccc(-c3ccccc3)cc21 [Compound 11 d, (4,4‐Dimethyloxazolidin‐3‐yl)(6‐phenyl‐1H‐benzo[d][1,2,3]triazol‐1‐yl)methanone]							54±6% of control	92±2% of control			73±2					76±18% of control	
CC1(C)COCN1C(=O)n1nnc2cc(C(N)=O)ccc21 [Compound 11 h, 1‐(4,4‐Dimethyloxazolidine‐3‐carbonyl)‐1H‐benzo[d][1,2,3]triazole‐5‐carboxamide]							6±1% of control	81±7% of control	96±2% of control	87±9% of remaining	67±2	87±0% of remaining	101±6% of remaining	57±3% of remaining	96±8% of remaining	6±1% of control	in vivo FAAH inhibitory activity, liver (FAAH [2]; [11]): > 90 % of control; time of maximum inhibitory effect in the liver (FAAH [2]; [12]): 1 h; ED50 (FAAH [2]; mouse, po, 8 h, read-out: ED50 liver FAAH): 7 µg/kg; inhibition at 0.1 mg/kg (FAAH [2]; mouse, po, read-out: peripheral inhibition of FAAH sustained over the next 7 h): > 90%; selectivity over CEs (carboxylesterases (CEs); text b31): > 80 % of control; selectivity over MAGL (MAGL; text b31): > 80 % of control; in vivo FAAH inhibitory activity, brain (FAAH [3]; [11]): > 90 % of control; time of maximal inhibitory effect in the brain (t max) (FAAH [3]; [12]): 1 h; ED50 cerebral FAAH (FAAH [3]; mice, p.o., 0.001 to 3 mg kg^−1, 8 h post-administration): 14 µg/kg

— article PMC6582431 (Chemmedchem, 2018)
